Reference: ChEMBL document CHEMBL6134779, “Design of Proteolytic-Resistant Antifungal Peptides by Utilizing Minimum d-Amino Acid Ratios” (J Med Chem, 2024)
In brackets after ≈: the same amount, converted by molar mass.

Tests used:
Candida albicans [1] = assay: Antifungal activity against Candida albicans CGMCC 2.2086 assessed as inhibition of fungal growth incubated for 48 hrs; assay type: functional
Candida tropicalis = assay: Antifungal activity against Candida tropicalis CGMCC 2.1975 assessed as inhibition of fungal growth incubated for 48 hrs; assay type: functional
Candida albicans [2] = assay: Antifungal activity against Candida albicans SP3902 assessed as inhibition of fungal growth incubated for 48 hrs; assay type: functional
Candida albicans [3] = assay: Antifungal activity against Candida albicans SP3903 assessed as inhibition of fungal growth incubated for 48 hrs; assay type: functional
Candida albicans [4] = assay: Antifungal activity against Fluconazole-resistant Candida albicans 58288 assessed as inhibition of fungal growth incubated for 48 hrs; assay type: functional
Candida albicans [5] = assay: Antifungal activity against Candida albicans SP3876 assessed as inhibition of fungal growth incubated for 48 hrs; assay type: functional
Candida albicans [6] = assay: Antifungal activity against Candida albicans SP3931 assessed as inhibition of fungal growth incubated for 48 hrs; assay type: functional
Candida albicans [7] = assay: Antifungal activity against Candida albicans 14936 assessed as inhibition of fungal growth incubated for 48 hrs; assay type: functional
Candida albicans [8] = assay: Antifungal activity against Candida albicans 17546 assessed as inhibition of fungal growth incubated for 48 hrs; assay type: functional
Candida albicans [9] = assay: Antifungal activity against Fluconazole-resistant Candida albicans 56214 assessed as inhibition of fungal growth incubated for 48 hrs; assay type: functional
Candida albicans [10] = assay: Antifungal activity against Candida albicans 56452 assessed as inhibition of fungal growth incubated for 48 hrs; assay type: functional
Candida parapsilosis = assay: Antifungal activity against Candida parapsilosis CGMCC 2.3989 assessed as inhibition of fungal growth incubated for 48 hrs; assay type: functional; settings: Lodderomyces parapsilosis
[11] = Hemolytic activity in human red blood cells assessed as hemolysis incubated for 1 hr; assay type: toxicity, cell-based, Erythrocyte
[12] = Hemolytic activity in human red blood cells assessed as hemolysis rate at 512 uM incubated for 1 hr relative to control; assay type: toxicity, cell-based, Erythrocyte; settings: read-out: Activity
Candida albicans [13] = assay: Antifungal activity against Candida albicans CGMCC 2.2086 assessed as inhibition of fungal growth incubated for 48 hrs in presence of NaCl; assay type: functional
Candida albicans [14] = assay: Antifungal activity against Candida albicans CGMCC 2.2086 assessed as inhibition of fungal growth incubated for 48 hrs in presence of KCl; assay type: functional
Candida albicans [15] = assay: Antifungal activity against Candida albicans CGMCC 2.2086 assessed as inhibition of fungal growth incubated for 48 hrs in presence of NH4Cl; assay type: functional
Candida albicans [16] = assay: Antifungal activity against Candida albicans CGMCC 2.2086 assessed as inhibition of fungal growth incubated for 48 hrs in presence of MgCl2; assay type: functional
Candida albicans [17] = assay: Antifungal activity against Candida albicans CGMCC 2.2086 assessed as inhibition of fungal growth incubated for 48 hrs in presence of ZnCl2; assay type: functional
Candida albicans [18] = assay: Antifungal activity against Candida albicans CGMCC 2.2086 assessed as inhibition of fungal growth incubated for 48 hrs in presence of FeCl3; assay type: functional
Candida albicans [19] = assay: Antifungal activity against Candida albicans CGMCC 2.2086 assessed as inhibition of fungal growth incubated for 48 hrs in presence of CaCl2; assay type: functional
[20] = Stability of the compound in NaCl assessed as change in secondary structure by CD spectra analysis; assay type: physicochemical
[21] = Stability of the compound in KCl assessed as change in secondary structure by CD spectra analysis; assay type: physicochemical
[22] = Stability of the compound in NH4Cl assessed as change in secondary structure by CD spectra analysis; assay type: physicochemical
[23] = Stability of the compound in MgCl2 assessed as change in secondary structure by CD spectra analysis; assay type: physicochemical
[24] = Stability of the compound in ZnCl2 assessed as change in secondary structure by CD spectra analysis; assay type: physicochemical
[25] = Stability of the compound in FeCl3 assessed as change in secondary structure by CD spectra analysis; assay type: physicochemical
[26] = Stability of the compound in CaCl2 assessed as change in secondary structure by CD spectra analysis; assay type: physicochemical

SMILES	MIC95 (Candida albicans [1]) [µM]	MIC95 (Candida tropicalis) [µM]	MIC95 (Candida albicans [2]) [µM]	MIC95 (Candida albicans [3]) [µM]	MIC95 (Candida albicans [4]) [µM]	MIC95 (Candida albicans [5]) [µM]	MIC95 (Candida albicans [6]) [µM]	MIC95 (Candida albicans [7]) [µM]	MIC95 (Candida albicans [8]) [µM]	MIC95 (Candida albicans [9]) [µM]	MIC95 (Candida albicans [10]) [µM]	MIC95 (Candida parapsilosis) [µM]	HC50 at 1 h [11] [µM]	hemolysis at 1 h, 512 µM [12] [%]	MIC95 (Candida albicans [13]) [µM]	MIC95 (Candida albicans [14]) [µM]	MIC95 (Candida albicans [15]) [µM]	MIC95 (Candida albicans [16]) [µM]	MIC95 (Candida albicans [17]) [µM]	MIC95 (Candida albicans [18]) [µM]	further results
CC(C)[C@H](N)C(=O)N[C@H](C(=O)N[C@H](CCCNC(=N)N)C(=O)N[C@@H](CCCNC(=N)N)C(=O)N[C@@H](Cc1c[nH]cn1)C(=O)N[C@H](C(=O)N[C@H](C(=O)N[C@H](C(=O)N[C@H](C(=O)N[C@H](CCCNC(=N)N)C(=O)N[C@@H](CCCNC(=N)N)C(=O)N[C@@H](Cc1c[nH]cn1)C(=O)N[C@H](C(=O)N[C@H](C(N)=O)C(C)C)C(C)C)C(C)C)C(C)C)C(C)C)C(C)C)C(C)C	> 64	4 (≈ 6.84 µg/mL)	> 64	> 64	> 64	> 64	> 64	> 64	64 (≈ 109 µg/mL)	> 64	> 64	> 64	> 512	-1.2	> 64	> 64	64	> 64	> 64	> 64	MIC95 (Candida albicans [19]): > 64 µM; Stability [20]: Unstable; Stability [21]: Stable; Stability [22]: Stable; Stability [23]: Stable; Stability [24]: Stable; Stability [25]: Stable; Stability [26]: Stable
CC[C@H](C)[C@H](N)C(=O)N[C@H](C(=O)N[C@H](CCCNC(=N)N)C(=O)N[C@@H](CCCNC(=N)N)C(=O)N[C@@H](Cc1c[nH]cn1)C(=O)N[C@H](C(=O)N[C@H](C(=O)N[C@H](C(=O)N[C@H](C(=O)N[C@H](CCCNC(=N)N)C(=O)N[C@@H](CCCNC(=N)N)C(=O)N[C@@H](Cc1c[nH]cn1)C(=O)N[C@H](C(=O)N[C@H](C(N)=O)[C@@H](C)CC)[C@@H](C)CC)[C@@H](C)CC)[C@@H](C)CC)[C@@H](C)CC)[C@@H](C)CC)[C@@H](C)CC	16 (≈ 29.1 µg/mL)	2 (≈ 3.64 µg/mL)	8 (≈ 14.6 µg/mL)	64 (≈ 117 µg/mL)	32 (≈ 58.3 µg/mL)	32 (≈ 58.3 µg/mL)	16 (≈ 29.1 µg/mL)	32 (≈ 58.3 µg/mL)	64 (≈ 117 µg/mL)	64 (≈ 117 µg/mL)	32 (≈ 58.3 µg/mL)	32 (≈ 58.3 µg/mL)	> 512	1.84	> 64	32	32	64	64	64	MIC95 (Candida albicans [19]): > 64 µM; Stability [20]: Unstable; Stability [21]: Stable; Stability [22]: Stable; Stability [23]: Stable; Stability [24]: Stable; Stability [25]: Stable; Stability [26]: Stable
CC[C@H](C)[C@H](N)C(=O)N[C@H](C(=O)N[C@H](CCCNC(=N)N)C(=O)N[C@@H](CCCNC(=N)N)C(=O)N[C@@H](Cc1c[nH]cn1)C(=O)N[C@H](C(=O)N[C@H](C(N)=O)[C@@H](C)CC)[C@@H](C)CC)[C@@H](C)CC	> 64	64 (≈ 58.8 µg/mL)	64 (≈ 58.8 µg/mL)	> 64	> 64	> 64	> 64	> 64	> 64	> 64	> 64	> 64	> 512	-1.57	> 64	> 64	> 64	> 64	> 64	> 64	MIC95 (Candida albicans [19]): > 64 µM; Stability [20]: Unstable; Stability [21]: Stable; Stability [22]: Stable; Stability [23]: Stable; Stability [24]: Stable; Stability [25]: Stable; Stability [26]: Stable
CC(C)[C@H](N)C(=O)N[C@H](C(=O)N[C@H](CCCNC(=N)N)C(=O)N[C@@H](CCCNC(=N)N)C(=O)N[C@@H](Cc1c[nH]cn1)C(=O)N[C@H](C(=O)N[C@H](C(N)=O)C(C)C)C(C)C)C(C)C	> 64	64 (≈ 55.2 µg/mL)	> 64	> 64	> 64	> 64	> 64	> 64	> 64	> 64	> 64	> 64	> 512	-0.02	> 64	> 64	> 64	> 64	> 64	> 64	MIC95 (Candida albicans [19]): > 64 µM; Stability [20]: Unstable; Stability [21]: Stable; Stability [22]: Stable; Stability [23]: Stable; Stability [24]: Stable; Stability [25]: Stable; Stability [26]: Stable
CC(=O)N1CCN(c2ccc(OCC3COC(Cn4ccnc4)(c4ccc(Cl)cc4Cl)O3)cc2)CC1 (centres undefined) [KETOCONAZOLE]	2 (≈ 1.06 µg/mL)	2 (≈ 1.06 µg/mL)	2 (≈ 1.06 µg/mL)	4 (≈ 2.13 µg/mL)	> 64	16 (≈ 8.5 µg/mL)	4 (≈ 2.13 µg/mL)	4 (≈ 2.13 µg/mL)	2 (≈ 1.06 µg/mL)	> 64	1 (≈ 0.531 µg/mL)	4 (≈ 2.13 µg/mL)	–	–	–	–	–	–	–	–	–
